{"source": "patent US11001808B2", "about": "“Immortalization of epithelial cells and methods of use” (Georgetown University, priority 2010, dated 2021)", "key": {"human prostate cells": {"tested_on": "human prostate cells", "test": "Proliferation in serum-containing F medium with Rho-Rock-Myosin pathway inhibitors, Crystal Violet staining (FIG. 23)", "assay_type": "cell-based", "conditions": "about 5000 cells in 6-well plates, 8 days, Y-27632 5 μM, HA-1100 20 μM, GSK429286 0.1 μM, Fasudil 30 μM, C3 transferase 2 μg/ml, Blebbistatin 5 μM", "protocol": "FIG. 23 depicts that inhibition of the Rho-Rock-Myosin pathway prevents cells from terminally differentiating, allowing the cells to proliferate in serum-containing medium. Normally, serum-containing medium induces terminal differentiation of primary epithelial cells and, in turn, causes senescence in culture. Approximately 5000 human prostate cells were plated in 6-well plates in F medium with addition of Rock inhibitors Y-27632 (5 μM), HA-1100 (20 μM), GSK429286 (0.1 μM), Fasudil (30 μM), a Rho inhibitor (C3 transferase, 2 μg/ml), or a Mysin inihibitor (-Blebbistatin, 5 μM). Eight days later, cells were fixed and stained with 0.05% Crystal Violet.\nAs used herein, inhibiting ROCK can mean to reduce the activity, function or expression of at least one of ROCK1 or ROCK2. […] In general, ROCK phosphorylates LIM kinase and myosin light chain (MLC) phosphatase after being activated through binding of GTP-bound Rho. One embodiment of the present invention thus involves blocking the upstream pathway of ROCK1 and/or ROCK2, for example GTP-bound Rho, such that ROCK1 and/or ROCK2 is not activated or its activity is reduced over untreated cells. Other upstream effectors include but are not limited to, integrins, growth factor receptors, including but not limited to, TGF-beta and EGFR, cadherins, G protein coupled receptors and the like. Another embodiment of the present invention thus involves blocking the activity, function or expression of downstream effector molecules of activated ROCK1 and/or ROCK2 such that ROCK1 and/or ROCK2 can not propagate any signal or can only propagate a reduced signal over untreated cells. Downstream effectors include but are not limited to, Myosin phosphatase-targeting protein (MYPT), vimentin, LIMK, Myosin light chain kinase, NHE1, cofilin, Myosin II and the like. […] Upstream or downstream inhibition of ROCK, in place of direct ROCK inhibition and in conjunction with the other culture conditions described and required herein, may or may not generate conditionally immortalized NKE cells."}, "[1]": {"tested_on": "HPV-11-containing tumor cells from the patient", "test": "Cell viability curves (CellTiter-Glo Luminescent Cell Viability Assay), patient's cultured tumor cells", "assay_type": "cell-based, human", "conditions": "for sensitivity of tumor cells compared with normal lung cells: tumor versus normal lung cells of the same patient, 24 hours", "protocol": "(§1) Normal and tumor cells were treated with Cidofovir, Vorinostat or DHA at indicated concentration for 24 hours. Cell viabilities were measured using CellTiter-Glo® Luminescent Cell Viability Assay (Promega)\n(§2) There is no data in the literature, however, analyzing the effect of these inhibitors on cells containing low-risk HPVs, because there are no cell lines established that contain HPV-6 or HPV-11. […] More importantly, this cell line was used to evaluate the sensitivity to the above inhibitors and to compare it to the sensitivity of normal lung cells isolated from the same patient (FIG. 17).\n(§3) Cidovovir is the most common drug used for treating RRP."}, "[2]": {"tested_on": "recurrent papillomatosis of the larynx", "conditions": "patient history: interferon 1996-2010, Methotrexate 2001-03, intralesional Cidofovir 2007-2010, intralesional Avastin 2010; cited from earlier work"}, "[3]": {"tested_on": "cervical cancer cells that express the high-risk HPVs", "conditions": "previous studies; cited from earlier work"}, "airway epithelial cells": {"tested_on": "airway epithelial cells", "conditions": "Moore et al., 2004; cited from earlier work"}, "normal lung cells": {"tested_on": "normal lung cells", "test": "Cell viability curves (CellTiter-Glo Luminescent Cell Viability Assay), normal cells of the same patient", "conditions": "treated 24 hours, cell type of the LD50 not stated, taken as normal lung cells from context", "protocol": "as §1, §2, §3"}, "[4]": {"tested_on": "recurrent respiratory papillomatosis", "test": "Vorinostat therapy of the patient, follow-up by CT scan", "assay_type": "in vivo, human", "conditions": "one patient, 400 mg/daily, 4 week cycle (3 weeks on, 1 week off)", "source_text": "A patient with recurrent papillomatosis of the larynx for 16 years was chosen for this study. The disease progressively involved not only the larynx, but had spread to the upper airway (trachea and bronchi) and recently into the lung parenchyma. The patient had had more than 350 surgeries. Besides surgeries, multiple treatments had failed, including interferon treatment (1996-2010), Methotrexate (2001-03), intralesional Cidofovir (2007-2010), and intralesional Avastin (2010). […] By October 2010, the size each lung lesion examined was increasing. During the last surgical intervention, a wedge resection of the right upper lobe was performed to remove metastatic tumor. […] Koilocytotic changes in such tumors are an indication that the tumor is producing infectious HPV. However, at the time of intervention, the type of HPV involved in this tumor had not been identified. Since the tumor had not responded to several different treatment modalities, it was also unclear how the patient would be treated following surgery.\nBased on the in vitro sensitivity data, the patient was placed on Vorinostat therapy in January of 2011. The therapy consisted 4 week cycle (3 weeks on, 1 week off) of Vorinostat at 400 mg/daily. […] Thus, the use of the cell culture methods of the present invention were critical in determining a response profile of the abnormal cells, which enabled the identification of at least two chemotherapeutic agents that might be useful for treating this patient's tumors. Using the cell culture methods of the present invention, the response profile, including the genetic analysis and the therapeutic index, was generated within one week of biopsy."}, "[5]": {"tested_on": "human primary prostate cells", "test": "In vitro growth curves under various growth conditions (FIG. 2A)", "assay_type": "cell-based", "protocol": "(§4) FIGS. 2A-2B depict in vitro growth curves of human primary prostate cells and human primary mammary cells under various growth conditions. (A) PrEGM is a synthetic commercial prostate epithelial cell growth medium; (B) MEGM is a synthetic commercial mammary epithelial cell medium; Feeders are J2 mouse fibroblasts that have been irradiated or treated with mitomycin C; ROCK inhibitor is Y27632 at a concentration of 10 μM that was applied to the cells at initial plating and thereafter. The y-axis is population doublings and the x-axis is number of days. Media was changed every 3 days for all groups.\n(§5) Primary HMECs and HPECs were grown under the four different conditions noted in FIG. 2. […] Feeders were the J2 mouse fibroblasts that have been gamma irradiated. The ROCK inhibitor was Y27632 at a concentration of 10 μM that was applied to the cells at initial plating and thereafter. The y-axis is population doublings and the x-axis is number of days. Media was changed every 2-3 days for all groups.\n(§6) Cells grown in the presence of the feeder cells in F medium without ROCK inhibitor had about the same growth rate, i.e., the slope of the lines was about the same, but the cells grown in the presence of feeder cells eventually stopped growing."}, "[6]": {"tested_on": "human primary mammary cells", "test": "In vitro growth curves under various growth conditions (FIG. 2B)", "assay_type": "cell-based", "protocol": "as §4, §5, §6"}, "[7]": {"conditions": "F medium, irradiated J2 feeders, 10 μM from initial plating"}}, "note": "Entries after “also recorded” stand apart in the source; their conditions may differ."}
{"compound": "Cc1ccc2c(c1)C(=O)C1(O)CCN(c3ccccc3)C1=N2", "note": "(stereo not shown) [Blebbistatin]", "values": [{"measurement": "suppression of serum-induced differentiation / proliferation in serum-containing medium", "setting": "human prostate cells", "result": "able to suppress cell differentiation by serum"}, {"measurement": "suppression of serum-induced differentiation / proliferation in serum-containing medium", "setting": "human prostate cells; listed as blebbistatin", "result": "allow the cells to bypass differentiation and allow proliferation in vitro"}]}
{"compound": "Nc1ccn(C[C@@H](CO)OCP(=O)(O)O)c(=O)n1", "note": "[Cidofovir]", "values": [{"measurement": "effect on cell viability in vitro", "setting": "[1]; very high concentrations (50-200 μM), 24 hours (FIG. 17A)", "result": "completely ineffective"}, {"measurement": "outcome of earlier treatment", "setting": "[2]", "result": "failed"}]}
{"compound": "C[C@H]1[C@@H](O)O[C@@H]2O[C@@]3(C)CC[C@H]4[C@H](C)CC[C@@H]1[C@@]24OO3", "note": "[DHA]", "values": [{"measurement": "sensitivity of tumor cells compared with normal lung cells", "setting": "[1]", "result": "approximately 100 fold"}, {"measurement": "killing of cervical cancer cells", "setting": "[3]", "result": "able to efficiently kill"}]}
{"compound": "O=S(=O)(c1cccc2cnccc12)N1CCCNCC1", "note": "[Fasudil]", "values": [{"measurement": "suppression of serum-induced differentiation / proliferation in serum-containing medium", "setting": "human prostate cells", "result": "able to suppress cell differentiation by serum"}, {"measurement": "effect of inhibition on airway epithelial cells", "setting": "airway epithelial cells", "result": "induces membrane ruffling, loss of actin stress fibers and apoptosis"}]}
{"compound": "CC1=C(C(=O)Nc2cc3cn[nH]c3cc2F)C(c2ccc(C(F)(F)F)cc2)CC(=O)N1", "note": "(stereo not shown) [GSK429286]", "values": [{"measurement": "suppression of serum-induced differentiation / proliferation in serum-containing medium", "setting": "human prostate cells", "result": "able to suppress cell differentiation by serum"}]}
{"compound": "O=S(=O)(c1cccc2c(O)nccc12)N1CCCNCC1", "note": "[HA-1100]", "values": [{"measurement": "suppression of serum-induced differentiation / proliferation in serum-containing medium", "setting": "human prostate cells", "result": "able to suppress cell differentiation by serum"}]}
{"compound": "CN(Cc1cnc2nc(N)nc(N)c2n1)c1ccc(C(=O)N[C@@H](CCC(=O)O)C(=O)O)cc1", "note": "[Methotrexate]", "values": [{"measurement": "outcome of earlier treatment", "setting": "[2]", "result": "failed"}]}
{"compound": "O=C(CCCCCCC(=O)Nc1ccccc1)NO", "note": "[SAHA]", "values": [{"measurement": "sensitivity of tumor cells compared with normal lung cells", "setting": "[1]", "result": "approximately 100 fold"}, {"measurement": "LD50", "setting": "normal lung cells", "result": "approximately 200 μM"}, {"measurement": "lesions in more recent CT scan", "setting": "[4]", "result": "all lesions had stabilized"}, {"measurement": "lesions in subsequent CT scan", "setting": "[4]", "result": "no new lesions were identified, smaller lesions were shrinking, and some larger lesions were also decreasing in size"}, {"measurement": "side effects", "setting": "[4]", "result": "no major side effects had been observed"}]}
{"compound": "C[C@@H](N)[C@H]1CC[C@H](C(=O)Nc2ccncc2)CC1", "note": "[Y-27632]", "values": [{"measurement": "growth (population doublings) with feeder cells in F medium plus ROCK inhibitor", "setting": "[5]; [7]", "result": "have continued to grow"}, {"measurement": "growth (population doublings) on addition of ROCK inhibitor to synthetic medium", "setting": "[5]; PrEGM synthetic serum-free medium, 10 μM, no feeders", "result": "did not affect growth"}, {"measurement": "growth (population doublings) with feeder cells in F medium plus ROCK inhibitor", "setting": "[6]; [7]", "result": "have continued to grow"}, {"measurement": "growth (population doublings) on addition of ROCK inhibitor to synthetic medium", "setting": "[6]; MEGM synthetic serum-free medium, 10 μM, no feeders", "result": "did not affect growth"}, {"measurement": "suppression of serum-induced differentiation / proliferation in serum-containing medium", "setting": "human prostate cells", "result": "able to suppress cell differentiation by serum"}, {"measurement": "effect of inhibition on airway epithelial cells", "setting": "airway epithelial cells", "result": "induces membrane ruffling, loss of actin stress fibers and apoptosis"}]}
{"compound": "C[C@H]1[C@H](OC(=O)CCC(=O)O)O[C@@H]2O[C@@]3(C)CC[C@H]4[C@H](C)CC[C@@H]1[C@@]24OO3", "note": "[artesunate]", "values": [{"measurement": "killing of cervical cancer cells", "setting": "[3]", "result": "able to efficiently kill"}]}
{"compound": "Avastin: intralesional Avastin, earlier treatment of the patient", "values": [{"measurement": "outcome of earlier treatment", "setting": "[2]", "result": "failed"}]}
{"compound": "C3 transferase", "values": [{"measurement": "suppression of serum-induced differentiation / proliferation in serum-containing medium", "setting": "human prostate cells", "result": "able to suppress cell differentiation by serum; also recorded: allow the cells to bypass differentiation and allow proliferation in vitro"}]}
